Data: the NIST ThermoML archive (doi:10.1016/j.jct.2004.10.005)

Legend:
[1] = Molar enthalpy of transition or fusion
[2] = molar heat capacity at constant pressure; conditions: 101.33 kPa

BrC12CC3CC(CC(C3)C1)C2 [1-bromotricyclo[3.3.1.1(3,7)]decane]
[1]
Conditions | Molar enthalpy of transition or fusion [kJ/mol]
Crystal 1, DSC | 3.97
Crystal 2, Adiabatic calorimetry | 7.42
Crystal 2, DSC | 7.51
Crystal 3, Adiabatic calorimetry | 1.387
Crystal 4, Adiabatic calorimetry | 0.00144

Conditions | Triple point temperature [K]
Crystal 1, DTA | 391.8
Crystal 2, Adiabatic calorimetry | 309.9
Crystal 2, DTA | 309.8
Crystal 3, Adiabatic calorimetry | 282.2
Crystal 4, Adiabatic calorimetry | 31

[2]
Conditions | molar heat capacity at constant pressure [J/K/mol]
5 K, Crystal 4, Vacuum adiabatic calorimetry | 0.6485
10 K, Crystal 4, Vacuum adiabatic calorimetry | 4.755
15 K, Crystal 4, Vacuum adiabatic calorimetry | 11.51
20 K, Crystal 4, Vacuum adiabatic calorimetry | 18.36
25 K, Crystal 4, Vacuum adiabatic calorimetry | 24.35
30 K, Crystal 4, Vacuum adiabatic calorimetry | 29.52
31 K, Crystal 3, Vacuum adiabatic calorimetry | 30.48
31 K, Crystal 4, Vacuum adiabatic calorimetry | 30.48
35 K, Crystal 3, Vacuum adiabatic calorimetry | 33.96
40 K, Crystal 3, Vacuum adiabatic calorimetry | 37.77
45 K, Crystal 3, Vacuum adiabatic calorimetry | 41.08
50 K, Crystal 3, Vacuum adiabatic calorimetry | 44.09
60 K, Crystal 3, Vacuum adiabatic calorimetry | 49.73
70 K, Crystal 3, Vacuum adiabatic calorimetry | 55.13
80 K, Crystal 3, Vacuum adiabatic calorimetry | 60.5
90 K, Crystal 3, Vacuum adiabatic calorimetry | 65.87
100 K, Crystal 3, Vacuum adiabatic calorimetry | 71.25
110 K, Crystal 3, Vacuum adiabatic calorimetry | 76.65
120 K, Crystal 3, Vacuum adiabatic calorimetry | 82.11
130 K, Crystal 3, Vacuum adiabatic calorimetry | 87.63
140 K, Crystal 3, Vacuum adiabatic calorimetry | 93.24
150 K, Crystal 3, Vacuum adiabatic calorimetry | 99.03
160 K, Crystal 3, Vacuum adiabatic calorimetry | 105
170 K, Crystal 3, Vacuum adiabatic calorimetry | 111.2
180 K, Crystal 3, Vacuum adiabatic calorimetry | 117.7
190 K, Crystal 3, Vacuum adiabatic calorimetry | 124.4
200 K, Crystal 3, Vacuum adiabatic calorimetry | 131.5
210 K, Crystal 3, Vacuum adiabatic calorimetry | 138.9
220 K, Crystal 3, Vacuum adiabatic calorimetry | 146.5
230 K, Crystal 3, Vacuum adiabatic calorimetry | 154.9
240 K, Crystal 3, Vacuum adiabatic calorimetry | 164.8
250 K, Crystal 3, Vacuum adiabatic calorimetry | 175.5
260 K, Crystal 3, Vacuum adiabatic calorimetry | 185.9
270 K, Crystal 3, Vacuum adiabatic calorimetry | 195.4
273.15 K, Crystal 3, Vacuum adiabatic calorimetry | 198.1
280 K, Crystal 3, Vacuum adiabatic calorimetry | 203.6
282.2 K, Crystal 2, Vacuum adiabatic calorimetry | 205.2
282.2 K, Crystal 3, Vacuum adiabatic calorimetry | 205.2
290 K, Crystal 2, Vacuum adiabatic calorimetry | 210.6
298.15 K, Crystal 2, Vacuum adiabatic calorimetry | 215.4
300 K, Crystal 2, Vacuum adiabatic calorimetry | 216.5
309.9 K, Crystal 1, Vacuum adiabatic calorimetry | 246.3
309.9 K, Crystal 2, Vacuum adiabatic calorimetry | 221.9
310 K, Crystal 1, Vacuum adiabatic calorimetry | 246.5
320 K, Crystal 1, Vacuum adiabatic calorimetry | 257.5
330 K, Crystal 1, Large sample (1 g) DSC | 279.7
340 K, Crystal 1, Large sample (1 g) DSC | 297
350 K, Crystal 1, Large sample (1 g) DSC | 302.1
360 K, Crystal 1, Large sample (1 g) DSC | 305.2
370 K, Crystal 1, Large sample (1 g) DSC | 305.7
380 K, Crystal 1, Large sample (1 g) DSC | 305.9
390 K, Crystal 1, Large sample (1 g) DSC | 306.1
391.8 K, Crystal 1, Large sample (1 g) DSC | 306.1

[2], Liquid, Large sample (1 g) DSC
Conditions | molar heat capacity at constant pressure [J/K/mol]
391.8 K | 311.4
400 K | 311.6
410 K | 312
420 K | 312.3
430 K | 312.7
